Patent US11685766B2, “14-3-3 targeting peptides for cancer treatment” (Creighton University, priority 2019, dated 2023)
pKd: −log10 of the molar value. Entries after “also recorded” stand apart in the source; their conditions may differ. Peptide text beside a SMILES is read from it.

Experiments:
14-3-3ε protein = target: T1, 14-3-3ε protein (Homo sapiens, UniProt P62258); test: Differential scanning fluorimetry (DSF) binding; conditions: 7 μM 14-3-3ε, ΔTm vs peptide concentration, Hill fit; read-out: Kd, binding affinity to 14-3-3ε protein (DSF)
T1 sequence (P62258 1-255): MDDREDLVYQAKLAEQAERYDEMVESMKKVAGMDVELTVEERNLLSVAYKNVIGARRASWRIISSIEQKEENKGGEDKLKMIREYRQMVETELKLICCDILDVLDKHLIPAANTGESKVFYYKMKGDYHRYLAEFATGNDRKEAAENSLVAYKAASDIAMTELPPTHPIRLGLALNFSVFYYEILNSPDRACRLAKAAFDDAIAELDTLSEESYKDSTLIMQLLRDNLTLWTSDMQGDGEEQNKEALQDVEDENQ
Method: Differential scanning fluorimetry (DSF) experiments were performed using BioRad CFX384 Real-Time qPCR attached with C1000 Touch Thermo Cycler in the FRET channel. 7 μM subunits of 14-3-3ε protein, ten molar excess of Sypro Orange and 20 mM Tris-HCl, pH 7.4 assay buffer were used in all the melting experiments. Stock solution of peptides were prepared by dissolving 1 mg of lyophilized peptides in 20 mM Tris, pH 7.4 buffer and 0.1 μM to 200 μM dilution series were prepared. Protein melting experiments were performed both in the absence and the presence of increasing concentration of peptides. 15 μL of each samples (in triplicate) were put into each well of a 384-well white PCR plate and sealed with optical adhesive sealer (BioRad MSB-1001) and any air-bubble in the solutions were removed by spinning the plate vertically with PCR plate spinner (Labnet MPS 1000) at 1000 RPM for 3 minutes. The temperature was increased from 25° C. to 95° C. at a rate of 0.7° C. per minute. Melting temperatures of each well were determined using the CFX Maestro software version 2.0 by plotting the first derivative of fluorescence signal against temperature. All the measurements were performed in triplicate and the deviations of melting temperatures (ΔTm) presented for each samples were calculated relatively to three control samples (7 μM 14-3-3ε in the absence of the peptide). Binding constant (Kd) for each peptide was calculated by plotting ΔTm against peptide concentration and data points were fitted with Hill's equation using GraphPad 9.0 software.

[1] = test system: normal human epidermal keratinocytes (nHEK); test: Neutral Red Cell Viability assay in normal keratinocytes; type: cell-based; conditions: FIG. 1A dashed line
Method: Human skin cancer cell lines (SCC12B.2, SCC13, SRB12) were maintained in Dulbecco's modified Eagle's medium (DMEM) (Invitrogen, Carlsbad, Calif., USA) supplemented with 1% penicillin (10 000 U/ml)-streptomycin (10 000 μg/ml) (PenStrep) (Invitrogen) and 10% fetal bovine serum (Gemini Bio-Products, Sacramento, Calif., USA) at 37° C. and 5% CO2. Normal human epidermal keratinocytes (nHEK) (Thermo Scientific, Waltham, Mass., USA) isolated from neonatal foreskin were cultured in EpiLife medium (Invitrogen) supplemented with human keratinocyte growth supplement (Invitrogen) and 1% PenStrep (Invitrogen). […]
To determine the half maximal inhibitory concentration (IC50) for ES1P2 in SCC12B.2 and nHEK cells, cells were plated in a 96-well plate at a density of 6×10^3 cells/well. […] Neutral Red Cell Viability assays were performed, where absorbance was measured using a Cytation 5 multi-mode plate reader (BioTek). […]

SMILES	pKd (14-3-3ε protein)	toxicity to normal keratinocytes [1]
CC(=O)N[C@@H](CCCNC(=N)N)C(=O)N[C@H](C(=O)N[C@@H](CCCCN)C(=O)N[C@@H](CO)C(=O)N[C@@H](CCCNC(=N)N)C(=O)N[C@H](C(=O)N[C@@H](Cc1c[nH]c2ccccc12)C(=O)N[C@@H](C)C(=O)NCC(=O)N[C@@H](CCC(=O)O)C(=O)N[C@@H](CCCCN)C(=O)N[C@@H](CO)C(=O)N[C@@H](CCCCN)C(=O)N[C@@H](CCCNC(=N)N)C(N)=O)[C@@H](C)OP(=O)(O)O)[C@@H](C)O [pT, Ac-Arg-Thr-Lys-Ser-Arg-Thr(PO3^2−)-Trp-Ala-Gly-Glu-Lys-Ser-Lys-Arg-NH2] (HELM PEPTIDE1{[ac].R.T.K.S.R.[C[C@@H](OP(=O)(O)O)[C@H](N[*:1])C(=O)[*:2]].W.A.G.E.K.S.K.R.[am]}$$$$V2.0)	5.44	–
CSCC[C@H](NC(=O)[C@H](CCCNC(=N)N)NC(=O)[C@@H]1CCCN1C(=O)[C@H](C)NC(=O)[C@H](COP(=O)(O)O)NC(=O)[C@H](CC(N)=O)NC(=O)[C@H](CCC(N)=O)NC(=O)[C@H](CCCNC(=N)N)NC(=O)[C@H](CCC(N)=O)NC(=O)[C@@H](NC(C)=O)[C@@H](C)O)C(=O)N[C@@H](CC(C)C)C(=O)N[C@@H](CO)C(=O)N[C@@H](CO)C(=O)N[C@@H](CC(N)=O)C(N)=O [pS, Ac-Thr-Gln-Arg-Gln-Asn-Ser-(PO3^2−)-Ala-Pro-Arg-Met-Leu-Ser-Ser-Asn-NH2] (HELM PEPTIDE1{[ac].T.Q.R.Q.N.[O=C([C@H](COP(=O)(O)O)N[*:1])[*:2]].A.P.R.M.L.S.S.N.[am]}$$$$V2.0)	4.95	–
NCCCC[C@H](NC(=O)[C@H](Cc1c[nH]c2ccccc12)NC(=O)[C@H](Cc1ccc(O)cc1)NC(=O)[C@@H](N)Cc1c[nH]c2ccccc12)C(N)=O [ES1P2, Trp-Tyr-Trp-Lys-NH2] (H-WYWK-NH2)	–	killed SCC cells but not normal keratinocytes; also recorded: nontoxic
